Patent US20250197641A1, “OPTICAL ABSORBENT” (priority 2023, published 2025)

How the values were obtained:
Format in all cases: physicochemical
[1] = Absorption maximum measurement; details: chloroform, about 10^-5 M
Procedure: The maximum absorption was evaluated by a conventional method. Specifically, the sample was dissolved in chloroform solvent at a concentration of about 10^−5 M and then evaluated using measuring equipment (Agilent, Varian Cary 4000).

[2] = Pyrolysis temperature (Td 5%) analysis by TGA; details: 25-800° C., 10° C./min, N2
Procedure: The Td 5% is a value obtained through TGA (Thermogravimetric Analysis) analysis. It is the value (Td 5%) at a weight loss of 5% confirmed under the conditions of a temperature range of 25° C. to 800° C., a temperature increase rate of 10° C./min, and a nitrogen (N2) atmosphere of 60 cm^3/min.
Thermogravimetric Analysis (TGA) of the chemical compound was performed by using Scinco's TGA N-1000 equipment. The analysis was performed by using approximately 3 mg of sample (chemical compound) and the analysis was conducted under conditions of a temperature range of 25° C. to 800° C., a temperature increase rate of 10° C./min, and nitrogen (N2) atmosphere of 60 cm^3/min. The value at […] (Td 5%) was used as the Td decomposition temperature.

[3] = Solubility of the absorbent in methylene chloride; details: room temperature (about 25° C.)
Procedure: The solubility of the absorbent was evaluated. Solubility was determined based on the following criteria by evaluating the solubility of the absorbent in the solvent (MC, Methylene Chloride) at room temperature (about 25° C.).

[4] = Transmittance of absorption membrane before and after reliability evaluation (Test Example 1); details: for 425~465 nm Tave, Δ / 425~465 nm Tmin, Δ / 466~480 nm Tave, Δ / 466~480 nm Tmin, Δ / 480~560 nm Tave, Δ / λmax Tmax (transmittance at the absorption maximum), Δ: change before/after 85° C.; for 425~465 nm Tave, Δ / 425~465 nm Tmin, Δ / 466~480 nm Tave, Δ / 466~480 nm Tmin, Δ / 480~560 nm Tave, Δ / λmax Tmax (transmittance at the absorption maximum), Δ / 425~465 nm Tave, A / 425~465 nm Tmin, A / 466~480 nm Tave, A / 466~480 nm Tmin, A / 480~560 nm Tave, A: 85% RH, 120 hours; for 425~465 nm Tave, B / 425~465 nm Tmin, B / 466~480 nm Tave, B / 466~480 nm Tmin, B / 480~560 nm Tave, B: silicone resin membrane about 6 μm, before reliability evaluation; for 425~465 nm Tave, A / 425~465 nm Tmin, A / 466~480 nm Tave, A / 466~480 nm Tmin, A / 480~560 nm Tave, A: silicone resin membrane, after 85° C.
Procedure: The transmittance spectrum was measured using a spectrophotometer (Manufacturer: Perkinelmer, Product Name: Lambda 750 Spectrophotometer) on a specimen obtained by cutting the measurement object (e.g., an absorption membrane) so that the width and height were 10 mm and 10 mm, respectively. The transmittance spectrum was measured for each wavelength according to the equipment manual. The specimen was placed on a straight line between a measuring beam of the spectrophotometer and a detector and the transmittance spectrum was confirmed by setting the incident angle of the measuring beam to 0°. The incident angle of 0° is a direction substantially parallel to the surface normal direction of the specimen. The average transmittance within a certain wavelength range in the transmittance spectrum is the result of measuring the transmittance at each wavelength while increasing the wavelength by 1 nm starting from the shortest wavelength in the wavelength range, and then calculating the arithmetic average of the measured transmittances. The maximum transmittance is the maximum transmittance among the transmittances measured while increasing the wavelength by 1 nm and the minimum transmittance is the minimum transmittance among the transmittances measured while increasing the wavelength by 1 nm. For example, the average transmittance within the wavelength range of 350 nm to 360 nm is the arithmetic mean of the transmittance measured at the wavelength of 350 nm, 351 nm, 352 nm, 353 nm, 354 nm, 355 nm, 356 nm, 357 nm, 358 nm, 359 nm, and 360 nm. The maximum transmittance within the wavelength range of 350 nm to 360 nm is the highest transmittance measured at wavelengths of 350 nm, 351 nm, 352 nm, 353 nm, 354 nm, 355 nm, 356 nm, 357 nm, 358 nm, 359 nm and 360 nm and the minimum transmittance within the wavelength range of 350 nm to 360 nm is the lowest transmittance among the transmittances measured at wavelengths of 350 nm, 351 nm, 352 nm, 353 nm, 354 nm, 355 nm, 356 nm, 357 nm, 358 nm, 359 nm, and 360 nm.
A coating solution was prepared by mixing silicone resin (Dow Chemical, RSN-0217), absorbent, and solvent (cyclohexanone) as resin components. The mixing ratio of the resin component, absorbent, and solvent was set to be 69.3:0.99:29.7 in weight ratio (resin:absorbent:solvent).
The coating solution was coated on a transparent substrate (a glass substrate manufactured by SCHOTT) and maintained at 140° C. for about 2 hours to form an absorption membrane with a thickness of about 6 μm.
Tables 2 and 3 below summarize the transmittance of the absorption membrane before and after reliability evaluation in the ultraviolet and near-infrared regions. The reliability evaluation is an evaluation of maintaining the absorption membrane at 85° C. and under 85% relative humidity condition for 120 hours. In Table 2, B refers to the result before performing the reliability evaluation and A refers to the result after performing the reliability evaluation. Additionally, in Table 2, λmax means the transmittance at the absorption maximum.
In Tables 2 and 3, Δ is the rate of change (%) of each characteristic before and after the reliability evaluation, calculated as 100×[…]/B, where […], B is the value indicated by B in Table 2. In Table 2, Tmax refers to the highest transmittance within the corresponding wavelength region, Tave refers to the average transmittance within the corresponding wavelength region, and Tmin refers to the minimum transmittance within the corresponding wavelength region.

[5] = Absorption spectra of absorption membrane before and after high temperature/high humidity evaluation (Test Example 2); details: 85% relative humidity, 120 hours; for ΔA = 100×(Af−Ai)/Ai / Δλ = 100×(λf−λi)λi: 85° C.; for Af, transmittance at the absorption maximum wavelength / λf, absorption maximum wavelength: absorption membrane after 85° C.; for Ai, transmittance at the absorption maximum wavelength / λi, absorption maximum wavelength: absorption membrane before 85° C.
Source text: FIGS. 4 to 6 are the absorption spectra of the absorption membranes prepared in Test Example 1 using the absorbents of Embodiments 1 to 3, respectively. FIGS. 7 to 9 are the absorption spectrum of the absorption membrane prepared in Test Example using the absorbents of Comparative Examples 1 to 3, respectively. In the FIGS., the spectra indicated before reliability is the result immediately after preparing the absorption membrane, and the spectra indicated after reliability is the result after high temperature/high humidity evaluation was performed on the absorption membrane. The high temperature/high humidity evaluation is an evaluation where the absorption membrane is maintained at a temperature of 85° C. under a relative humidity of 85% for 120 hours. In Tables 4 and 5, Af is the transmittance at the absorption maximum wavelength of the absorption membrane maintained at 85° C. under 85% relative humidity for 120 hours and λf is the absorption maximum wavelength for after case. Ai is the transmittance at the absorption maximum wavelength of the absorption membrane before being maintained at 85° C. under 85% relative humidity for 120 hours and λi is the absorption maximum wavelength for before case. In Tables 4 and 5, ΔA is a value calculated as 100×(Af−Ai)/Ai, and Δλ is a value calculated as 100×(λf−λi)λi.

Structure (SMILES)	Maximum Absorption Wavelength [1] [nm]	Td 5% [2] [°C]	425~465 nm Tave, Δ [4] [%]	425~465 nm Tmin, Δ [4] [%]	466~480 nm Tave, Δ [4] [%]	466~480 nm Tmin, Δ [4] [%]	480~560 nm Tave, Δ [4] [%]	λmax Tmax (transmittance at the absorption maximum), Δ [4] [%]	425~465 nm Tave, B [4] [%]	425~465 nm Tmin, B [4] [%]	466~480 nm Tave, B [4] [%]	466~480 nm Tmin, B [4] [%]	480~560 nm Tave, B [4] [%]	425~465 nm Tave, A [4] [%]	425~465 nm Tmin, A [4] [%]	466~480 nm Tave, A [4] [%]	466~480 nm Tmin, A [4] [%]	480~560 nm Tave, A [4] [%]	ΔA = 100×(Af−Ai)/Ai [5] [%]	Δλ = 100×(λf−λi)λi [5] [%]	further results
CCCCN1\C(=C/C=C/C=C/C=C/C2=[N+](CCCC)c3ccccc3C2(C)C)C(C)(C)c2ccccc21 [Comparative Example 1]	761	215	0.2	1.0	−0.6	−0.7	−0.3	14.7	88.7	86.5	90.1	89.8	90.1	88.9	87.5	89.5	89.1	89.8	69.0	−13	Solubility [3]: A (When solubility is 1 mass % or more); Af, transmittance at the absorption maximum wavelength [5]: 36.0%; λf, absorption maximum wavelength [5]: 747 nm; Ai, transmittance at the absorption maximum wavelength [5]: 21.3%; λi, absorption maximum wavelength [5]: 748 nm
CCCCN1\C(=C/C=C/C=C/C=C/C2=[N+](CCCC)c3ccc4ccccc4c3C2(C)C)C(C)(C)c2c1ccc1ccccc21 [Comparative Example 2]	801	211	0	−0.2	0.1	−0.1	−0.3	12.8	89.6	88.9	90.2	89.8	91.2	89.6	88.7	90.2	89.7	90.9	27.1	13	Solubility [3]: A (When solubility is 1 mass % or more); Af, transmittance at the absorption maximum wavelength [5]: 59.8%; λf, absorption maximum wavelength [5]: 785 nm; Ai, transmittance at the absorption maximum wavelength [5]: 47.1%; λi, absorption maximum wavelength [5]: 784 nm
CC1(C)C(/C=C/C=C/C=C/C=C2\N(C[Si](C)(C)C)c3ccccc3C2(C)C)=[N+](C[Si](C)(C)C)c2ccccc21 [Embodiment 1]	763	231	0	0.1	0	0	0	0.8	89.7	87.9	91.1	90.7	91.4	89.8	88	91.1	90.7	91.4	6.6	0	Af, transmittance at the absorption maximum wavelength [5]: 12.3%; λf, absorption maximum wavelength [5]: 758 nm; Ai, transmittance at the absorption maximum wavelength [5]: 11.5%; λi, absorption maximum wavelength [5]: 758 nm
CC1(C)C(/C=C/C=C/C=C/C=C2\N(C[Si](C)(C)C)c3ccc4ccccc4c3C2(C)C)=[N+](C[Si](C)(C)C)c2ccc3ccccc3c21 [Embodiment 2]	803	230	0.1	0.1	0	0.1	0	1.4	89.5	88.6	90.3	89.8	91.3	89.5	88.7	90.3	89.8	91.3	4.2	0	Af, transmittance at the absorption maximum wavelength [5]: 34.9%; λf, absorption maximum wavelength [5]: 790 nm; Ai, transmittance at the absorption maximum wavelength [5]: 33.5%; λi, absorption maximum wavelength [5]: 790 nm
CC1(C)C(/C=C/C2=C(Cl)C(=C/C=C3\N(C[Si](C)(C)C)c4ccccc4C3(C)C)/CC2)=[N+](C[Si](C)(C)C)c2ccccc21 [Embodiment 3]	817	216	0.1	0.1	0.1	0.1	0.	0.8	87.8	86.8	89.4	88.1	91	87.9	87	89.5	88.2	91	6.7	0	Af, transmittance at the absorption maximum wavelength [5]: 12.3%; λf, absorption maximum wavelength [5]: 823 nm; Ai, transmittance at the absorption maximum wavelength [5]: 11.5%; λi, absorption maximum wavelength [5]: 82. nm
